Reference: US8895522B2, “Composition and method for the prevention, treatment and/or alleviation of an inflammatory disease” (Index Pharmaceuticals AB, priority 2005, dated 2014)
In the oligonucleotide strings, read from the 5' end, every base follows the letter of its sugar. An asterisk marks phosphorothioate; unmarked linkages are phosphodiester. Other units and linkages are bracketed, terminal groups are in braces. A string of capitals states the bases alone. d = 2'-deoxy (DNA)

What was measured:
[1] = test system: steroid refractory/dependent IBD patients (ulcerative colitis and Crohn's disease); assay: Human pilot proof of concept study in steroid resistant/dependent patients; assay type: in vivo; details: for Clinical response at week 1, responders: 5/7 patients, on concomitant steroid therapies
Protocol: A small pilot study was conducted in steroid refractory/dependent IBD patients with the following objectives.
Primary objective: To assess the safety issues regarding the use of the DNA based oligonucleotide denoted as SEQ.ID.NO.1 in ulcerative colitis and Crohn's disease patients.
Secondary objective: To explore the clinical efficacy as determined by endoscopic and clinical remission/improvement rates, histological improvement and changes in clinical laboratory parameters.
The study was placebo controlled; double blinded single dose and considered patients that were unresponsive to corticosteroids or corticosteroid dependent who where on concomitant steroid therapies.
Doses levels used were 3 mg and 30 mg given as a single rectal administration

[2] = test system: patients with mild to moderately active ulcerative colitis; assay: Clinical phase II study in ulcerative colitis patients; assay type: in vivo, human; details: for Clinical response at Week 1: No, n (%) / Clinical response at Week 1: Yes, n (%): single rectal dose, ITT/Safety population; for clinical response rate at week 1, all receiving active drug: all four dose levels pooled (26/119)
Protocol: A large 150 patient study performed in ulcerative colitis patients who were neither on concomitant steroid therapies nor were described as being steroid refractory/dependent.
Primary objective: To evaluate the ability of each of the four dose levels (0.3 mg, 3 mg, 30 mg and 100 mg) of oligonucleotide SEQ.ID.NO.1 as an anti-inflammatory therapy to induce clinical remission in patients with mild to moderately active ulcerative colitis (UC), as compared with placebo.
Secondary objective: To assess the tolerability of single rectal doses of SEQ.ID.NO.1 oligonucleotide and to further evaluate the efficacy and safety of SEQ.ID.NO.1 oligonucleotide at four dose levels and to assess the pharmacokinetics of SEQ.ID.NO.1 oligonucleotide after rectal administration, as compared to placebo.

human PBMC = assay: Induction of IL-10 from healthy human PBMC (ELISpot); assay type: cell-based; details: PBMC from 5 healthy individuals, 48 hours
Protocol: Whole blood was obtained from healthy blood donors. PBMCs were prepared from 30 ml whole blood according to the following protocol:
30 ml blood was transferred directly into heparinized tubes. All blood was transferred into one 50 ml Falcon tube and PBS added up to 50 ml. 15 ml Ficoll (17-1440-03, obtained from Amersham Bioscience AB, Uppsala) was then added into two falcon tubes (50 ml). The PBS-treated blood was then carefully added on the top of to Ficoll, 25 ml to each tube. The tubes were then centrifuged 25 min at 1700 RPM at RT (20° C.).
RPMIc medium was prepared under sterile conditions, using a 0.22 uM filter. (RPMIc denotes a RPMI 1640 culture medium (R0883, Sigma) supplemented with 5% heat-inactivated (56° C.,1 h) FCS 1.5 mM L-glutamine (G7513, Sigma), 100 U/ml penicillin and 100 ug/ml streptomycin, PEST (P0781, Sigma), hepes (H0887, Sigma), and gentamycin (G1272, Sigma)).
The interphase was carefully pipetted from the two tubes into 2x 50mi Falcon tubes. PBS was added up to 50 ml in each tube, and the tubes centrifuged for 10 min at 1700 RPM (4° C.).
The supernatant was discarded, and PBS added to 30 ml, whereupon the tubes were centrifuged at 10 min at 1500 RPM (4° C.). Again, the supernatant was discarded, 10 ml PBS added, and the pellets from the two falcon tubes pooled.
The cells were counted and left in PBS, then centrifuged at 1200 RPM, 10 min. Medium was then added to obtain the concentration of interest, and the cells counted (16 squares)×3. The mean value was calculated and multiplied with the dilution factor×10^4=cells/ml. Diluting the cells to 10 million/ml will result in 500.000 cells/50 ul medium, 6 million/ml will be 300.000/50 ul medium.
Elispot assays where performed according to the manufactures recommended guidelines (MabTech) and the plates were analyzed using an AID ELISpot reader system (Autoimmun Diagnostika GmbH, Strassberg, Germany).
Approximately 500,000 PBMC cells per well, derived from blood from healthy human donors, were incubated for 48 hours in the presence of the different oligonucleotides. Specifically, SEQ.ID.NO 1, SEQ.ID.NO 2, SEQ.ID.NO 6 and SEQ.ID.NO 8. Following incubation, the wells were developed according to the kit supplier's recommendations and the average number of positive cells producing IL-10 per well were counted using an AID ELISpot reader system, (Autoimmun Diagnostika GmbH, Strassberg, Germany).

[3] = test system: human PBMC from steroid resistant asthmatics or healthy donors; assay: Cytokine production in PBMC from steroid resistant asthmatics or healthy donors (Cytometric Bead Array); assay type: cell-based; details: 25 μM or 100 μM, 48 hours, CBA
Protocol: Blood samples were obtained from healthy volunteers or steroid resistant asthmatics. PBMC were isolated by density gradient centrifugation using Ficoll-Paque Plus (Pharmacia Biotech, Uppsala, Sweden), washed three times in buffered saline solution (PBS), and re-suspended in RPMI 1640 (Sigma) containing 10% heat inactivated fetal calf serum (FCS) (Life Technologies), 100 U/mL penicillin 100 μg/mL streptomycin (Life Technologies), 2 mM L-glutamine (Sigma), gentamycin (Sigma) and 5 mM Hepes (Gibco, Life Technologies). Cells were counted using 0.4% Trypan blue solution (Sigma Aldrich)
PBMC, prepared as previously described were, directly after seeding, stimulated with SEQ.ID.NO. 1. (25 μM and 100 μM) in the presence or absence of Dex (10^−6, 10^−8 and 10^−10 M) into a 96-well flat bottomed cell culture plate at 500 000 cells/well in RPMIc. As control ODN, 1 μM of IDX0910 was used. After treatment, cells were incubated in a humified incubator at 5% carbon dioxide and 37° C. for 48 hrs. Supernatants were saved and stored at −20° C. prior to cytokine level determination.
The supernatants were kept at −20° C. until analyzed. IFN-, IL-6, IL-10, IL-2, IL-4 and TNF-alpha were measured utilizing the Cytometric Bead Array (CBA) from Becton Dickenson (BD), according to the manufacturer's protocol. The lower detection limit was 20 pg/ml for each cytokine. The FACSCalibur was used for all CBA analysis for this study.
PBMCs were incubated in medium (basal) or with 25 μM (hatched bars) or 100 μM (dotted bars) of the CpG containing SEQ.ID.NO.1 for 48 hours before detection of IL-6 in supernatant. Each bar of the histogram represents average amount of IL-6 production from 9 healthy donors and 9 steroid resistant asthmatics. Experiments were performed in triplicate for each blood donor. Background levels of IL-6 (medium) were subtracted from each group of samples.

[4] = single rectal administration 3 mg or 30 mg

For “5′-G*G*A*ACAGTTCGTCCAT*G*G*C-3′ (DNA dG*dG*dA*dAdCdAdGdTdTdCdGdTdCdCdAdT*dG*dG*dC) [SEQ.ID.NO 1, (Hu p65)AS, CpG-containing ODN; * marks phosphorothioate linkage, others phosphodiester]”, the “time to response of responding patients” value ([1]; after single rectal administration) was “within a week”, the “patients still in remission and steroid free” value ([1]; of the 7 patients that received the drug) was “two from the 7 patients” and the serious adverse events [1, 4] was “no serious adverse events were recorded”. The “Clinical response at week 1, responders” value [1, 4] was 71%, the “Clinical response at week 1, responders” value ([1]; single rectal administration 3 mg or 30 mg, listed as Active) was 71% and the efficacy ([1]; single rectal administration, 3 mg and 30 mg dose groups) was “good efficacy in both dose groups”. The “Clinical response at Week 1: No, n (%)” value ([2]; 0.3 mg (N = 31)) was 23 (74.2) n (%), the “Clinical response at Week 1: Yes, n (%)” value ([2]; 0.3 mg (N = 31)) was 8 (25.8) n (%) and the “Clinical response at Week 1: No, n (%)” value ([2]; 3 mg (N = 29)) was 23 (79.3) n (%). For the same substance, the “Clinical response at Week 1: Yes, n (%)” value ([2]; 3 mg (N = 29)) was 6 (20.7) n (%), the “Clinical response at Week 1: No, n (%)” value ([2]; 30 mg (N = 30)) was 23 (76.7) n (%) and the “Clinical response at Week 1: Yes, n (%)” value ([2]; 30 mg (N = 30)) was 7 (23.3) n (%). For the same substance, the “Clinical response at Week 1: No, n (%)” value ([2]; 100 mg (N = 29)) was 24 (82.8) n (%), the “Clinical response at Week 1: Yes, n (%)” value ([2]; 100 mg (N = 29)) was 5 (17.2) n (%) and the “clinical response rate at week 1, all receiving active drug” value [2] was 22%. The “clinical response rate at week 1, all receiving active drug” value ([2]; listed as Active) was 22%, the “induction of clinical, endoscopic or histopathological remissions or responses” value ([2]; one single dose from 0.3 to 100 mg, over a 12 week period) was “could not confirm” and the safety profile ([2]; single rectal doses 0.3 to 100 mg) was “good safety profile”. The “concentration from which IL-10 producing cells are induced” value (human PBMC) was “around 5 uM”, the “induction of IL-10 producing cells” value (human PBMC; FIG. 11) was “clear potential to induce IL-10 producing cells” and the “IL-6 induced, steroid resistant PBMCs compared to healthy PBMCs” value ([3]; 9 healthy donors and 9 steroid resistant asthmatics) was “significantly lower”. For the same substance, the “IL-10 induced, steroid resistant PBMCs compared to healthy PBMCs” value [3] was “significantly lower” and the “interferon-gamma induced, steroid resistant PBMCs compared to healthy PBMCs” value [3] was “significantly lower”.
